Reference: patent US11753404B2, “Aminothiazole compounds as c-Kit inhibitors” (Ariad Pharmaceuticals, Inc., priority 2016, dated 2023)

Assays:
[1] = test system: gastrointestinal stromal tumors (GIST); conditions: third line therapy; cited from earlier work
BAF3 FL KIT EX11DEL = target: T1, BAF3 FL KIT EX11DEL (Homo sapiens, UniProt P10721, cells depend on it, form not given); assay: c-Kit assay: Ba/F3 KIT mutant cell viability (Cell Titer-Glo, 72 hours); assay type: cell-based; conditions: viability after 72 hours
T1 construct: BAF3 FL KIT EX11DEL
How it was run: (§1)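 Ba/F3 cells made IL-3-independent by lentiviral KIT mutant expression, grown in RPMI/10% FBS at 37 °C. Eight 4-fold compound concentrations (10 μM to 0.61 nM) for 72 h; Cell Titer-Glo viability normalised to vehicle, IC50 from dose–response curves.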

[2] = target: T2, BAF3 FL KIT EX11DEL/D816H (Homo sapiens, UniProt P10721, D816H, cells depend on it, form not given); assay: as above; assay type: cell-based; conditions: viability after 72 hours
T2 construct: BAF3 FL KIT EX11DEL/D816H
How it was run: as §1

[3] = target: T3, BAF3 FL KIT EX11DEL/T670I (Homo sapiens, UniProt P10721, T670I, cells depend on it, form not given); assay: as above; assay type: cell-based; conditions: viability after 72 hours
T3 construct: BAF3 FL KIT EX11DEL/T670I
How it was run: as §1

[4] = target: T4, BAF3 FL KIT EX11DEL/V654A (Homo sapiens, UniProt P10721, V654A, cells depend on it, form not given); assay: as above; assay type: cell-based; conditions: viability after 72 hours
T4 construct: BAF3 FL KIT EX11DEL/V654A
How it was run: as §1

T2 sequence (P10721 with tags, fused parts or gaps DEL557-558/D816H, form open): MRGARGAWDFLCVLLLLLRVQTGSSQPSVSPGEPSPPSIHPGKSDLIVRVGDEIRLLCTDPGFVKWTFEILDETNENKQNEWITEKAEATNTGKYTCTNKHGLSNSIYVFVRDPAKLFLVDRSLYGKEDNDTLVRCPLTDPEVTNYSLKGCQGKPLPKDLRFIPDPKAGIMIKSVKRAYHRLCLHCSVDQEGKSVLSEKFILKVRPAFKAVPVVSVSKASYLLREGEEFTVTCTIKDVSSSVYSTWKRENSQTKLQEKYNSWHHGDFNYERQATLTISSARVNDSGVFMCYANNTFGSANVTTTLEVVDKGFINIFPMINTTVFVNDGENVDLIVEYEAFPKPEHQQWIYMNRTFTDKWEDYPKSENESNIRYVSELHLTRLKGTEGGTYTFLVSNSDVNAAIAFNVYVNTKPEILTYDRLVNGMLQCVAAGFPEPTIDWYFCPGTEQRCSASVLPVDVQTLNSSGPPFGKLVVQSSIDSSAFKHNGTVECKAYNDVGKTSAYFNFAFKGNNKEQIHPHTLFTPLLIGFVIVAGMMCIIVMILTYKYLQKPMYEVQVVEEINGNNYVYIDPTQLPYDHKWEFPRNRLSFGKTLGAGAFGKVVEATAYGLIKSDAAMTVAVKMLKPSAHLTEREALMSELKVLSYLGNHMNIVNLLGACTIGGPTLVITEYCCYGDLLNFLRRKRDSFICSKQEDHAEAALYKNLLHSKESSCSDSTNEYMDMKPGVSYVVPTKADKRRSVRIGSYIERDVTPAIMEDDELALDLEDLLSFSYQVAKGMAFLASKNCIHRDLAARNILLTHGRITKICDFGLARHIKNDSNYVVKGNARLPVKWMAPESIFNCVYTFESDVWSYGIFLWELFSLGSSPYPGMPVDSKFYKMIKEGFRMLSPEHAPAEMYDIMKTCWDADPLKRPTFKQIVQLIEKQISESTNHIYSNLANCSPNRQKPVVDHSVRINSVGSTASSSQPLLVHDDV
T4 sequence (P10721 with tags, fused parts or gaps DEL557-558/V654A, form open): as the sequence (P10721 with tags, fused parts or gaps DEL557-558/D816H, form open) above, with V652A, H814D counted along it
T1 sequence (P10721 with tags, fused parts or gaps DEL557-558): as the sequence (P10721 with tags, fused parts or gaps DEL557-558/D816H, form open) above, with H814D counted along it
T3 sequence (P10721 with tags, fused parts or gaps DEL557-558/T670I, form open): as the sequence (P10721 with tags, fused parts or gaps DEL557-558/D816H, form open) above, with T668I, H814D counted along it

| Structure (SMILES) | ORR [1] [%] | median PFS [1] [months] | GI50 (BAF3 FL KIT EX11DEL) [nM] | GI50 [2] [nM] | GI50 [3] [nM] | GI50 [4] [nM] |
| --- | --- | --- | --- | --- | --- | --- |
| CNC(=O)c1cc(Oc2ccc(NC(=O)Nc3ccc(Cl)c(C(F)(F)F)c3)c(F)c2)ccn1 [Regorafenib] | 4.5 | 4.8 |  |  |  |  |
| Cc1ccc(C(=O)Nc2cc(C(F)(F)F)ccn2)cc1C#Cc1cnc(NC(=O)N(C)C)s1 [I-1, 3-((2-(3,3-dimethylureido)thiazol-5-yl)ethynyl)-4-methyl-N-(4-(trifluoromethyl)pyridin-2-yl)benzamide] |  |  | < 10 | < 10 | < 10 | < 10 |
| Cc1ccc(NC(=O)c2cccc(OC(F)(F)F)c2)cc1C#Cc1cnc(NC(=O)N(C)C)s1 [I-56, N-(3-((2-(3,3-dimethylureido)thiazol-5-yl)ethynyl)-4-methylphenyl)-3-(trifluoromethoxy)benzamide] |  |  | < 10 | 10 to 50 | 10 to 50 | 10 to 50 |
| Cc1ccc(NC(=O)c2cc(C(F)(F)F)ccn2)cc1C#Cc1cnc(NC(=O)N(C)CCO)s1 [I-60, N-(3-((2-(3-(2-hydroxyethyl)-3-methylureido)thiazol-5-yl)ethynyl)-4-methylphenyl)-4-(trifluoromethyl)picolinamide] |  |  | < 10 | 10 to 50 | 50 to 100 | 10 to 50 |
| CNC(=O)Nc1ncc(C#Cc2cc(C(=O)Nc3cc(C(F)(F)F)ccn3)ccc2C)s1 [I-4, 4-methyl-3-((2-(3-methylureido)thiazol-5-yl)ethynyl)-N-(4-(trifluoromethyl)pyridin-2-yl)benzamide] |  |  | < 10 | < 10 | < 10 | 10 to 50 |
| COCCN(C)C(=O)Nc1ncc(C#Cc2cc(C(=O)Nc3ccc(CN4CCCC4)c(C(F)(F)F)c3)ccc2C)s1 [I-46, 3-((2-(3-(2-methoxyethyl)-3-methylureido)thiazol-5-yl)ethynyl)-4-methyl-N-(4-(pyrrolidin-1-ylmethyl)-3-(trifluoromethyl)phenyl)benzamide] |  |  | 10 to 50 | 10 to 50 | 10 to 50 | 50 to 100 |
| Cc1ccc(C(=O)Nc2cc(C(F)(F)F)ccn2)cc1C#Cc1cnc(NC(N)=O)s1 [I-2, 4-methyl-N-(4-(trifluoromethyl)pyridin-2-yl)-3-((2-ureidothiazol-5-yl)ethynyl)benzamide] |  |  | < 10 | 10 to 50 | < 10 | < 10 |
